According to PubChem BioAssay AID248 (DTP/NCI, 2004):
Where “and” joins values, the source holds several entries; their conditions need not be identical. Equal values may be shown once. Toxic doses and inconclusive results are not listed. Rule as the data show it: active = T/C of 150% or more; inactive = T/C below 125%.

Test system: L1210 leukemia ip in BDF1 mice, survival T/C
Test: NCI In Vivo Anticancer Drug Screen. Data for tumor model L1210 Leukemia (intraperitoneal) in B6D2F1 (BDF1) mice
Details: endpoint: mean survival time, higher = longer survival
How it was run: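 Mice bearing the transplanted tumor received compound or vehicle. Survival of the treated group was divided by that of the vehicle-treated control group to give the ratio.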

[1] = dose: 100.0 mg/kg/injection, schedule: Q01DX001 (ip), vehicle: saline
[2] = dose: 100.0 mg/kg/injection, schedule: Q04DX003 (ip), vehicle: saline
[3] = dose: 200.0 mg/kg/injection, schedule: Q01DX001 (ip), vehicle: saline
[4] = dose: 200.0 mg/kg/injection, schedule: Q04DX003 (ip), vehicle: saline
[5] = dose: 400.0 mg/kg/injection, schedule: Q01DX001 (ip), vehicle: saline
[6] = dose: 400.0 mg/kg/injection, schedule: Q04DX003 (ip), vehicle: saline
[7] = dose: 100.0 mg/kg/injection, schedule: Q01DX001 (ip), vehicle: carboxymethylcellulose (CMC)
[8] = dose: 200.0 mg/kg/injection, schedule: Q01DX001 (ip), vehicle: carboxymethylcellulose (CMC)
[9] = dose: 400.0 mg/kg/injection, schedule: Q01DX001 (ip), vehicle: carboxymethylcellulose (CMC)
[10] = dose: 100.0 mg/kg/injection, schedule: Q01DX001 (ip), vehicle: Klucel (hydroxypropylcellulose) (HPC)
[11] = dose: 200.0 mg/kg/injection, schedule: Q01DX001 (ip), vehicle: Klucel (hydroxypropylcellulose) (HPC)
[12] = dose: 400.0 mg/kg/injection, schedule: Q01DX001 (ip), vehicle: Klucel (hydroxypropylcellulose) (HPC)
[13] = dose: 100.0 mg/kg/injection, schedule: Q04DX002 (ip), vehicle: Klucel (hydroxypropylcellulose) (HPC)
[14] = dose: 200.0 mg/kg/injection, schedule: Q04DX002 (ip), vehicle: Klucel (hydroxypropylcellulose) (HPC)
[15] = dose: 400.0 mg/kg/injection, schedule: Q04DX002 (ip), vehicle: Klucel (hydroxypropylcellulose) (HPC)
[16] = dose: 100.0 mg/kg/injection, schedule: Q01DX009 (ip), vehicle: Klucel (hydroxypropylcellulose) (HPC)
[17] = dose: 200.0 mg/kg/injection, schedule: Q01DX009 (ip), vehicle: Klucel (hydroxypropylcellulose) (HPC)
[18] = dose: 100.0 mg/kg/injection, schedule: Q04DX003 (ip), vehicle: Klucel (hydroxypropylcellulose) (HPC)
[19] = dose: 200.0 mg/kg/injection, schedule: Q04DX003 (ip), vehicle: Klucel (hydroxypropylcellulose) (HPC)
[20] = dose: 400.0 mg/kg/injection, schedule: Q04DX003 (ip), vehicle: Klucel (hydroxypropylcellulose) (HPC)
[21] = dose: 75.0 mg/kg/injection, schedule: Q01DX001 (ip), vehicle: acetone
[22] = dose: 150.0 mg/kg/injection, schedule: Q01DX001 (ip), vehicle: acetone
[23] = dose: 300.0 mg/kg/injection, schedule: Q01DX001 (ip), vehicle: acetone
[24] = dose: 100.0 mg/kg/injection, schedule: Q04DX003 (ip), vehicle: saline with Tween-80
[25] = dose: 200.0 mg/kg/injection, schedule: Q04DX003 (ip), vehicle: saline with Tween-80
[26] = dose: 400.0 mg/kg/injection, schedule: Q04DX003 (ip), vehicle: saline with Tween-80
[27] = dose: 50.0 mg/kg/injection, schedule: Q01DX009 (ip), vehicle: saline
[28] = dose: 50.0 mg/kg/injection, schedule: Q01DX001 (ip), vehicle: carboxymethylcellulose (CMC)

Measured: T/C

O=P(O)(c1ccccc1)c1ccc(I)cc1
inactive: [1] 100 % of control | [2] 100 % of control | [3] 96 % of control | [4] 96 % of control | [5] 98 % of control | [6] 94 % of control

CCOC(=O)CN(C)C(=O)OCC
inactive: dose: 50.0 mg/kg/injection, schedule: Q01DX001 (ip), vehicle: saline 104 % of control | [1] 101 % of control | [3] 117 % of control | [5] 101 % of control

CCCCCCCCC[As](=O)(O)O
inactive: dose: 1.5 mg/kg/injection, schedule: Q01DX001 (ip), vehicle: carboxymethylcellulose (CMC) 98 % of control | dose: 3.0 mg/kg/injection, schedule: Q01DX001 (ip), vehicle: carboxymethylcellulose (CMC) 104 % of control | dose: 60.0 mg/kg/injection, schedule: Q01DX001 (ip), vehicle: carboxymethylcellulose (CMC) 109 % of control

CC(=O)c1cc(C)c(C)cc1C
inactive: [7] 100 % of control | [8] 94 % of control | [9] 97 % of control

CCC1=NS(=O)(=O)c2c(ncn2C)N1
inactive: dose: 100.0 mg/kg/injection, schedule: Q04DX003 (ip), vehicle: other 97 % of control | dose: 200.0 mg/kg/injection, schedule: Q04DX003 (ip), vehicle: other 97 % of control | dose: 400.0 mg/kg/injection, schedule: Q04DX003 (ip), vehicle: other 103 % of control

CSc1cccc(C(=O)O)c1
inactive: [10] 102 % of control | [11] 102 % of control | [12] 94 % of control

O=C(CC1(O)C(=O)Nc2ccc(Br)cc21)c1ccc2c(c1)OCO2 (stereo not given)
inactive: [13] 92 % of control | [14] 104 % of control | [15] 95 % of control

COc1ccc([N+](=O)[O-])c2c(C)cc(=O)[nH]c12
inactive: [10] 100 % of control | [16] 104 % of control | [11] 94 % of control | [17] 97 % of control | [12] 94 % of control

CN(C)C(=O)Sc1c(Cl)cc(S(=O)(=O)F)cc1[N+](=O)[O-]
inactive: [18] 102 % of control | [19] 101 % of control | [20] 100 % of control

CCN(CC)CC(O)c1ccnc2c([N+](=O)[O-])cc(OC)cc12 (stereo not given)
inactive: [21] 106 % of control | [22] 102 % of control | [23] 91 % of control

CSc1nc(N)cc(OCc2ccccc2)n1
inactive: dose: 50.0 mg/kg/injection, schedule: Q01DX001 (ip), vehicle: saline with Tween-80 100 % of control | dose: 100.0 mg/kg/injection, schedule: Q01DX001 (ip), vehicle: saline with Tween-80 97 % of control | dose: 200.0 mg/kg/injection, schedule: Q01DX001 (ip), vehicle: saline with Tween-80 92 % of control

Cc1ccc(N=Cc2ccc([N+](=O)[O-])s2)cc1Cl
inactive: [18] 91 % of control | [19] 89 % of control

Cc1c(Cl)cccc1NC(=O)C(c1ccccc1)c1ccccc1
inactive: [16] 89 % of control | [18] 101 % of control | [17] 94 % of control | [19] 86 % of control | dose: 400.0 mg/kg/injection, schedule: Q01DX009 (ip), vehicle: Klucel (hydroxypropylcellulose) (HPC) 93 % of control | [20] 91 % of control

O=N[C@@H]1CCC[C@H](Cl)C1
inactive: [24] 95 % of control | [25] 98 % of control | [26] 95 % of control

O=C1C2CCC(=O)N2c2ccccc2S(=O)(=O)C1c1ccccc1 (stereo not given)
inactive: dose: 12.5 mg/kg/injection, schedule: Q01DX009 (ip), vehicle: Klucel (hydroxypropylcellulose) (HPC) 95 % of control | dose: 25.0 mg/kg/injection, schedule: Q01DX009 (ip), vehicle: Klucel (hydroxypropylcellulose) (HPC) 98 % of control | dose: 25.0 mg/kg/injection, schedule: Q04DX003 (ip), vehicle: Klucel (hydroxypropylcellulose) (HPC) 96 % of control | dose: 50.0 mg/kg/injection, schedule: Q01DX009 (ip), vehicle: Klucel (hydroxypropylcellulose) (HPC) 91 % of control | dose: 50.0 mg/kg/injection, schedule: Q04DX003 (ip), vehicle: Klucel (hydroxypropylcellulose) (HPC) 96 % of control

CC1=C/C(=N/N(C)C)CC(C)C1 (stereo not given)
inactive: dose: 12.5 mg/kg/injection, schedule: Q01DX009 (ip), vehicle: saline 96 % of control | dose: 25.0 mg/kg/injection, schedule: Q01DX009 (ip), vehicle: saline 102 % of control | [27] 95 % of control | [2] 100 % of control | [4] 109 % of control | [6] 112 % of control

N=c1cc(-c2ccc(Cl)cc2)ss1
inactive: [27] 91 % of control | dose: 100.0 mg/kg/injection, schedule: Q01DX009 (ip), vehicle: saline 97 % of control | [2] 100 % of control | dose: 200.0 mg/kg/injection, schedule: Q01DX009 (ip), vehicle: saline 91 % of control | [4] 92 % of control

CC(CN1CCN(CCOCCO)CC1)CN1c2ccccc2Sc2ccc(Cl)cc21 (stereo not given)
inactive: dose: 0.09 mg/kg/injection, schedule: Q01DX009 (ip), vehicle: saline 114 % of control | dose: 0.39 mg/kg/injection, schedule: Q01DX009 (ip), vehicle: saline 94 % of control | dose: 0.78 mg/kg/injection, schedule: Q01DX009 (ip), vehicle: saline 96 % of control | dose: 0.78 mg/kg/injection, schedule: Q04DX003 (ip), vehicle: saline 108 % of control | dose: 1.56 mg/kg/injection, schedule: Q01DX009 (ip), vehicle: saline 114 % of control | dose: 1.56 mg/kg/injection, schedule: Q04DX003 (ip), vehicle: saline 110 % of control | dose: 3.12 mg/kg/injection, schedule: Q04DX003 (ip), vehicle: saline 106 % of control | dose: 6.25 mg/kg/injection, schedule: Q04DX003 (ip), vehicle: saline 105 % of control | dose: 12.5 mg/kg/injection, schedule: Q04DX003 (ip), vehicle: saline 111 % of control

CCCCCCCCCCCC(=O)NC(=S)Nc1cc(OC)ccc1OC
inactive: [13] 104 % of control | [14] 111 % of control | [15] 93 % of control

NC(=O)OCCOCCOC(N)=O
inactive: [24] 98 % of control | [25] 98 % of control | [26] 101 % of control

CCCCOP(=O)(OCCCC)Oc1cccc([N+](=O)[O-])c1
inactive: dose: 6.25 mg/kg/injection, schedule: Q01DX009 (ip), vehicle: carboxymethylcellulose (CMC) 117 % of control and 89 % of control | dose: 6.25 mg/kg/injection, schedule: Q04DX002 (ip), vehicle: carboxymethylcellulose (CMC) 93 % of control and 101 % of control | dose: 12.5 mg/kg/injection, schedule: Q01DX009 (ip), vehicle: carboxymethylcellulose (CMC) 110 % of control and 89 % of control | dose: 12.5 mg/kg/injection, schedule: Q04DX002 (ip), vehicle: carboxymethylcellulose (CMC) 93 % of control and 101 % of control | dose: 25.0 mg/kg/injection, schedule: Q01DX001 (ip), vehicle: carboxymethylcellulose (CMC) 104 % of control | dose: 25.0 mg/kg/injection, schedule: Q01DX009 (ip), vehicle: carboxymethylcellulose (CMC) 98 % of control and 92 % of control | [28] 100 % of control

Cn1c(=O)[nH]c(=O)c2c1[nH]c(=O)c(=O)n2C
inactive: [28] 101 % of control | [7] 98 % of control | [8] 95 % of control | [9] 106 % of control

Cc1cccc(C)c1N=Nc1sc(N)nc1C
inactive: [21] 114 % of control | [22] 94 % of control | [23] 110 % of control
